Patent publication US5041567A, “Antibacterial monic acid derivatives” (Beecham Group plc, priority 1982, dated 1991)
Values after ≈ are worked out from the molar mass of the structure shown. Like-named read-outs stand apart in the source and are kept apart here.

Experiments:
[1] = test system: M. suipneumoniae NB12; experiment: MIC against mycoplasma in vitro; format: cell-based; details: Mesomycoplasma hyopneumoniae, NB12, 144 h
[2] = test system: M. suipneumoniae HK(2); experiment: MIC against mycoplasma in vitro; format: cell-based; details: M. suipneumoniae HK(2), 6 days, 37° C.
[3] = test system: M. suipneumoniae J2206/183^b; experiment: MIC against mycoplasma in vitro; format: cell-based; details: M. suipneumoniae J2206/183^b, 6 days, 37° C.
[4] = test system: M. suipneumoniae MS 16; experiment: MIC against mycoplasma in vitro; format: cell-based
[5] = test system: M. suipneumoniae LABER; experiment: MIC against mycoplasma in vitro; format: cell-based
[6] = test system: M. suipneumoniae UCD 1; experiment: MIC against mycoplasma in vitro; format: cell-based
[7] = test system: M. suipneumoniae TAM 6N; experiment: MIC against mycoplasma in vitro; format: cell-based; details: M. suipneumoniae TAM 6N, 6 days, 37° C.
[8] = test system: M. suipneumoniae ATCC 25095; experiment: MIC against mycoplasma in vitro; format: cell-based
[9] = test system: M. hyorhinis ATCC 23234; experiment: MIC against mycoplasma in vitro; format: cell-based
[10] = test system: M. hyorhinis ATCC 25021; experiment: MIC against mycoplasma in vitro; format: cell-based
[11] = test system: M. hyosynoviae ATCC 25591; experiment: MIC against mycoplasma in vitro; format: cell-based; details: M. hyosynoviae ATCC 25591, 6 days, 37° C.
[12] = test system: M. bovis NCTC 10131; experiment: microbe, parasite or virus in culture; format: cell-based
[13] = test system: M. bovigenitalium ATCC 14173; experiment: MIC against mycoplasma in vitro; format: cell-based
[14] = test system: P. mirabilis 889; experiment: MIC against human bacteria in vitro; format: cell-based; details: P. mirabilis 889, 5% chocolated horse blood agar, 18 hours
[15] = test system: K. aerogenes A; experiment: MIC against human bacteria in vitro; format: cell-based; details: K. aerogenes A, 5% chocolated horse blood agar, 18 hours
[16] = test system: Ps. aeruginosa NCTC 10662; experiment: MIC against human bacteria in vitro; format: cell-based; details: Ps. aeruginosa NCTC 10662, 5% chocolated horse blood agar, 18 hours
[17] = test system: Haemophilus influenzae Wy21; experiment: MIC against human bacteria in vitro; format: cell-based
[18] = test system: Corynebacterium xerosis 9755; experiment: MIC against human bacteria in vitro; format: cell-based; details: Corynebacterium xerosis 9755, 5% chocolated horse blood agar, 18 hours
[19] = test system: Sarcina lutea 8340; experiment: MIC against human bacteria in vitro; format: cell-based; details: Sarcina lutea 8340, 5% chocolated horse blood agar, 18 hours
[20] = test system: Staph. aureus Russell; experiment: MIC against human bacteria in vitro; format: cell-based; details: Staph. aureus Russell, 5% chocolated horse blood agar, 18 hours
[21] = test system: Staph. aureus W2827; experiment: MIC against human bacteria in vitro; format: cell-based; details: Staph. aureus W2827, 5% chocolated horse blood agar, 18 hours
[22] = test system: Strep. faecalis I; experiment: MIC against human bacteria in vitro; format: cell-based; details: Strep. faecalis I, 5% chocolated horse blood agar, 18 hours
[23] = test system: Strep. agalactiae 2788-B; experiment: MIC against human bacteria in vitro; format: cell-based; details: Strep. agalactiae 2788-B, 5% chocolated horse blood agar, 18 hours
[24] = test system: Bord. bronchiseptica B08; experiment: MIC against veterinary bacteria in vitro
Procedure: (§1) The activity of the compounds of the Examples against various veterinarily important bacteria, was assayed in vitro using two-fold serial dilutions in Diagnostic Sensitivity Test Agar inoculated with 10^4 organisms.

[25] = test system: Bord. bronchiseptica B09; experiment: MIC against veterinary bacteria in vitro
Procedure: as §1

[26] = test system: Past. multocida PA1; experiment: MIC against veterinary bacteria in vitro
Procedure: as §1

[27] = test system: Past. multocida PA2; experiment: MIC against veterinary bacteria in vitro; details: Pasteurella multocida, PA2, 18 h
Procedure: as §1

[28] = test system: Erysipelothrix rhusiopathiae NCTC 8163; experiment: MIC against veterinary bacteria in vitro
Procedure: as §1

[29] = test system: Corynebacterium pyogenes CY1; experiment: MIC against veterinary bacteria in vitro
Procedure: as §1

[30] = test system: Staph. aureus B4 (pen. resistant); experiment: MIC against veterinary bacteria in vitro
Procedure: as §1

[31] = test system: Strep. suis (group D) SPS11; experiment: MIC against veterinary bacteria in vitro
Procedure: as §1

[32] = test system: Strep. dysgalactiae SPD1; experiment: MIC against veterinary bacteria in vitro
Procedure: as §1

[33] = test system: Past. haemolytica PA5; experiment: MIC against veterinary bacteria in vitro; details: Past. haemolytica PA5; Diagnostic Sensitivity Test Agar, 18 hours
Procedure: as §1

[34] = Mesomycoplasma hyopneumoniae, 144 h, read-out: MIC
[35] = Staphylococcus aureus, read-out: MIC

Compound: C/C(=C\c1ncc(-c2ccccc2[N+](=O)[O-])o1)C[C@@H]1OC[C@H](C[C@@H]2O[C@H]2[C@@H](C)[C@H](C)O)[C@@H](O)[C@H]1O [Example 26, 5-o-Nitrophenyl-2-(1-normon-2-yl)oxazole A]
- MIC [1]: 2.5 µg/mL (≈ 5.12 µM)
- MIC [2, 34]: 5 µg/mL (≈ 10.2 µM)
- MIC [3, 34]: 5 µg/mL (≈ 10.2 µM)
- MIC ([4]; Mesomycoplasma hyopneumoniae, MS16, 144 h): 1 µg/mL (≈ 2.05 µM)
- MIC ([5]; Mesomycoplasma hyopneumoniae, 144 h): 2.5 µg/mL (≈ 5.12 µM)
- MIC ([6]; Mesomycoplasma hyopneumoniae, UCD1, 144 h): 2.5 µg/mL (≈ 5.12 µM)
- MIC ([7]; Mesomycoplasma hyopneumoniae, TAM6N, 144 h, read-out: MIC): 5 µg/mL (≈ 10.2 µM)
- MIC ([8]; Mesomycoplasma hyopneumoniae, ATCC25095, 144 h): 2.5 µg/mL (≈ 5.12 µM)
- MIC ([9]; Mesomycoplasma hyorhinis, ATCC23234, 144 h): 2.5 µg/mL (≈ 5.12 µM)
- MIC ([10]; Mesomycoplasma hyorhinis, ATCC25021, 144 h): 2.5 µg/mL (≈ 5.12 µM)
- MIC ([11]; 144 h, read-out: MIC): 0.5 µg/mL (≈ 1.02 µM)
- MIC ([12]; NCTC10131, 144 h): 0.025 µg/mL (≈ 0.0512 µM)
- MIC ([13]; 144 h): 0.25 µg/mL (≈ 0.512 µM)
- MIC ([14]; Proteus mirabilis, read-out: MIC): > 128 µg/mL
- MIC ([15]; Klebsiella aerogenes, read-out: MIC): > 128 µg/mL
- MIC ([16]; Pseudomonas aeruginosa, NCTC10662, read-out: MIC): > 128 µg/mL
- MIC ([17]; Haemophilus influenzae, WY21, 18 h): 0.25 µg/mL (≈ 0.512 µM)
- MIC ([18]; read-out: MIC): > 128 µg/mL
- MIC ([19]; Micrococcus luteus, read-out: MIC): > 128 µg/mL
- MIC [20, 35]: 4 µg/mL (≈ 8.19 µM)
- MIC [21, 35]: 4 µg/mL (≈ 8.19 µM)
- MIC ([22]; Enterococcus faecalis, read-out: MIC): > 128 µg/mL
- MIC ([23]; Streptococcus agalactiae, read-out: MIC): 2 µg/mL (≈ 4.09 µM)
- MIC ([24]; Bordetella bronchiseptica, B08, 18 h): 80 µg/mL (≈ 164 µM)
- MIC ([25]; Bordetella bronchiseptica, B09, 18 h): 20 µg/mL (≈ 40.9 µM)
- MIC ([26]; Pasteurella multocida, PA1, 18 h): 10 µg/mL (≈ 20.5 µM)
- MIC [27]: 5 µg/mL (≈ 10.2 µM)
- MIC ([28]; Erysipelothrix rhusiopathiae, NCTC8163, 18 h): > 80 µg/mL
- MIC ([29]; CY1, 18 h): > 80 µg/mL
- MIC ([30]; Staphylococcus aureus, 18 h): 2.5 µg/mL (≈ 5.12 µM)
- MIC ([31]; Streptococcus suis, 18 h): 10 µg/mL (≈ 20.5 µM)
- MIC ([32]; Streptococcus dysgalactiae, SPD1, 18 h): 0.625 µg/mL (≈ 1.28 µM)

Compound: CC(=Cc1cnc(-c2ccccc2)o1)CC1OCC(CC2OC2C(C)C(C)O)C(O)C1O (stereo not drawn) [Example 35, 5-(1-Normon-2-yl)-2-phenyloxazole A]
- MIC [2]: > 10 µg/mL
- MIC [3]: > 10 µg/mL
- MIC ([4]; M. suipneumoniae MS 16, 6 days, 37° C.): > 10 µg/mL
- MIC ([5]; M. suipneumoniae LABER, 6 days, 37° C.): > 10 µg/mL
- MIC ([6]; M. suipneumoniae UCD 1, 6 days, 37° C.): > 10 µg/mL
- MIC [7]: > 10 µg/mL
- MIC ([8]; M. suipneumoniae ATCC 25095, 6 days, 37° C.): > 10 µg/mL
- MIC ([9]; M. hyorhinis ATCC 23234, 6 days, 37° C.): > 10 µg/mL
- MIC ([10]; M. hyorhinis ATCC 25021, 6 days, 37° C.): > 10 µg/mL
- MIC [11]: > 10 µg/mL
- MIC ([12]; M. bovis NCTC 10131, 6 days, 37° C.): 2.5 µg/mL (≈ 5.64 µM)
- MIC ([13]; M. bovigenitalium ATCC 14173, 6 days, 37° C.): 5.0 µg/mL (≈ 11.3 µM)
- MIC [14]: > 128 µg/mL
- MIC [15]: > 128 µg/mL
- MIC [16]: > 128 µg/mL
- MIC ([17]; Haemophilus influenzae Wy21, 5% chocolated horse blood agar, 18 hours): 128 µg/mL (≈ 289 µM)
- MIC [18]: > 128 µg/mL
- MIC [19]: > 128 µg/mL
- MIC [20]: > 128 µg/mL
- MIC [21]: > 128 µg/mL
- MIC [22]: > 128 µg/mL
- MIC [23]: > 128 µg/mL
- MIC ([24]; Bord. bronchiseptica B08, Diagnostic Sensitivity Test Agar, 18 hours): > 80 µg/mL
- MIC ([25]; Bord. bronchiseptica B09, Diagnostic Sensitivity Test Agar, 18 hours): > 80 µg/mL
- MIC ([26]; Past. multocida PA1, Diagnostic Sensitivity Test Agar, 18 hours): 80 µg/mL (≈ 180 µM)
- MIC [33]: > 80 µg/mL
- MIC ([28]; Erysipelothrix rhusiopathiae NCTC 8163, Diagnostic Sensitivity Test Agar, 18 hours): > 80 µg/mL
- MIC ([29]; Corynebacterium pyogenes CY1, Diagnostic Sensitivity Test Agar, 18 hours): > 80 µg/mL
- MIC ([30]; Staph. aureus B4 (pen. resistant), Diagnostic Sensitivity Test Agar, 18 hours): > 80 µg/mL
- MIC ([31]; Strep. suis (group D) SPS11, Diagnostic Sensitivity Test Agar, 18 hours): > 80 µg/mL
- MIC ([32]; Strep. dysgalactiae SPD1, Diagnostic Sensitivity Test Agar, 18 hours): > 80 µg/mL
